Measurements taken from the supplement of paper PMC11451515.

Experiments:
Details in all cases: 48 h
[1] = system: NOMO1; assay: cell viability relative to DMSO control; higher = less cytotoxic
Outline: (§1)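 NOMO1, SEM and P12-Ichikawa leukemia cells spent at least four passages adapting to each medium before use. They were seeded at 500 cells/well (NOMO1, SEM) or 1000 cells/well (P12-Ichikawa) in 5 μl in 1536-well plates and pin-dosed with library compounds in DMSO at 11 threefold steps from 47 μM down to 0.79 nM. After 48 h at 37°C, CellTiter-Glo One luminescence was read. Viability is reported as a percentage of the DMSO wells on each plate, with cell-free wells as background.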

[2] = system: P12-Ichikawa; assay: as above
Outline: as §1

[3] = system: SEM cells; assay: as above
Outline: as §1

[4] = system: NOMO1; assay: AUC of viability dose-response curve (% viability x log10 dose units); higher = less sensitive
Outline: (§2)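 Medium-adapted leukemia cells in 1536-well plates, at 500 or 1000 cells/well, were incubated for 48 h at 37°C with library compounds in DMSO at 11 threefold doses from 47 μM to 0.79 nM. CellTiter-Glo One luminescence normalised per plate to DMSO and cell-free wells was fitted with a four-parameter log-logistic model over log10 doses. Area under the curve was integrated from this fit by trapezoidal rule, with curves beyond full viability scaled and failed quality-control curves removed.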

[5] = system: P12-Ichikawa; assay: as above
Outline: as §2

[6] = system: SEM cells; assay: as above
Outline: as §2

CC(=O)N1CCN(c2ccc(OCc3nn(C)c(C)c3-c3cccc4c(CCCOc5cc(C)c(Cl)c(C)c5)c(C(=O)O)n(Cc5cccnc5)c34)cc2)CC1
cell viability [%]
Details | [1] | [2] | [3]
HPLM + 10% dialyzed FBS, 0.000781 µM | 111 | 104 | 78.5
HPLM + 10% dialyzed FBS, 0.00234 µM | 108 | 113 | 91.7
HPLM + 10% dialyzed FBS, 0.00702 µM | 132 | 112 | 106
HPLM + 10% dialyzed FBS, 0.0211 µM | 114 | 115 | 75.1
HPLM + 10% dialyzed FBS, 0.0632 µM | 126 | 114 | 111
HPLM + 10% dialyzed FBS, 0.19 µM | 130 | 111 | 118
HPLM + 10% dialyzed FBS, 0.569 µM | 120 | 113 | 117
HPLM + 10% dialyzed FBS, 1.71 µM | 130 | 107 | 105
HPLM + 10% dialyzed FBS, 5.12 µM | 131 | 115 | 99.3
HPLM + 10% dialyzed FBS, 15.4 µM | 120 | 113 | 97.4
HPLM + 10% dialyzed FBS, 46.1 µM | 84.6 | 39.2 | 2.86
RPMI 5 mM glucose + 10% FBS, 0.000781 µM | 111 | 105 | 97.6
RPMI 5 mM glucose + 10% FBS, 0.00234 µM | 115 | 106 | 84.3
RPMI 5 mM glucose + 10% FBS, 0.00702 µM | 124 | 115 | 97.8
RPMI 5 mM glucose + 10% FBS, 0.0211 µM | 150 | 118 | 77.5
RPMI 5 mM glucose + 10% FBS, 0.0632 µM | 130 | 120 | 97.3
RPMI 5 mM glucose + 10% FBS, 0.19 µM | 136 | 127 | 104
RPMI 5 mM glucose + 10% FBS, 0.569 µM | 146 | 116 | 117
RPMI 5 mM glucose + 10% FBS, 1.71 µM | 126 | 123 | 100
RPMI 5 mM glucose + 10% FBS, 5.12 µM | 120 | 125 | 82.5
RPMI 5 mM glucose + 10% FBS, 15.4 µM | 134 | 126 | 54
RPMI 5 mM glucose + 10% FBS, 46.1 µM | 94.6 | 64.9 | 1.85
RPMI 5 mM glucose + 10% dialyzed FBS, 0.000781 µM | 115 | 104 | 96.3
RPMI 5 mM glucose + 10% dialyzed FBS, 0.00234 µM | 112 | 115 | 101
RPMI 5 mM glucose + 10% dialyzed FBS, 0.00702 µM | 122 | 115 | 106
RPMI 5 mM glucose + 10% dialyzed FBS, 0.0211 µM | 135 | 122 | 81.2
RPMI 5 mM glucose + 10% dialyzed FBS, 0.0632 µM | 135 | 125 | 111
RPMI 5 mM glucose + 10% dialyzed FBS, 0.19 µM | 133 | 121 | 112
RPMI 5 mM glucose + 10% dialyzed FBS, 0.569 µM | 139 | 112 | 110
RPMI 5 mM glucose + 10% dialyzed FBS, 1.71 µM | 142 | 110 | 121
RPMI 5 mM glucose + 10% dialyzed FBS, 5.12 µM | 156 | 118 | 94.6
RPMI 5 mM glucose + 10% dialyzed FBS, 15.4 µM | 137 | 115 | 77.5
RPMI 5 mM glucose + 10% dialyzed FBS, 46.1 µM | 124 | 66.7 | 1.96

AUC of viability dose-response curve
Details | [4] | [5] | [6]
HPLM + 10% dialyzed FBS | 469 | 461 | 453
RPMI 5 mM glucose + 10% FBS | 471 | 459 | 413
RPMI 5 mM glucose + 10% dialyzed FBS | 457 | 467 | 441

Nc1nc(-c2nn(Cc3ccccc3F)c3ncccc23)nc(N)c1N1CCOCC1
cell viability [%]
Details | [1] | [2] | [3]
HPLM + 10% dialyzed FBS, 0.000781 µM | 75.2 | 92.3 | 88.9
HPLM + 10% dialyzed FBS, 0.00234 µM | 103 | 100 | 87.4
HPLM + 10% dialyzed FBS, 0.00702 µM | 115 | 105 | 96
HPLM + 10% dialyzed FBS, 0.0211 µM | 102 | 111 | 96.1
HPLM + 10% dialyzed FBS, 0.0632 µM | 119 | 111 | 101
HPLM + 10% dialyzed FBS, 0.19 µM | 122 | 112 | 110
HPLM + 10% dialyzed FBS, 0.569 µM | 122 | 110 | 99.3
HPLM + 10% dialyzed FBS, 1.71 µM | 122 | 109 | 116
HPLM + 10% dialyzed FBS, 5.12 µM | 130 | 109 | 104
HPLM + 10% dialyzed FBS, 15.4 µM | 112 | 107 | 93.5
HPLM + 10% dialyzed FBS, 46.1 µM | 92.1 | 95.9 | 89.8
RPMI 5 mM glucose + 10% FBS, 0.000781 µM | 88.5 | 93.1 | 98
RPMI 5 mM glucose + 10% FBS, 0.00234 µM | 93.8 | 97.9 | 84.6
RPMI 5 mM glucose + 10% FBS, 0.00702 µM | 106 | 98.8 | 103
RPMI 5 mM glucose + 10% FBS, 0.0211 µM | 107 | 116 | 115
RPMI 5 mM glucose + 10% FBS, 0.0632 µM | 110 | 107 | 106
RPMI 5 mM glucose + 10% FBS, 0.19 µM | 115 | 112 | 111
RPMI 5 mM glucose + 10% FBS, 0.569 µM | 113 | 110 | 111
RPMI 5 mM glucose + 10% FBS, 1.71 µM | 120 | 109 | 121
RPMI 5 mM glucose + 10% FBS, 5.12 µM | 104 | 107 | 94.2
RPMI 5 mM glucose + 10% FBS, 15.4 µM | 112 | 111 | 89.6
RPMI 5 mM glucose + 10% FBS, 46.1 µM | 113 | 107 | 80.6
RPMI 5 mM glucose + 10% dialyzed FBS, 0.000781 µM | 96.3 | 86.1 | 93.8
RPMI 5 mM glucose + 10% dialyzed FBS, 0.00234 µM | 107 | 101 | 85.6
RPMI 5 mM glucose + 10% dialyzed FBS, 0.00702 µM | 107 | 100 | 113
RPMI 5 mM glucose + 10% dialyzed FBS, 0.0211 µM | 110 | 108 | 99.9
RPMI 5 mM glucose + 10% dialyzed FBS, 0.0632 µM | 123 | 104 | 104
RPMI 5 mM glucose + 10% dialyzed FBS, 0.19 µM | 106 | 92.1 | 85.2
RPMI 5 mM glucose + 10% dialyzed FBS, 0.569 µM | 111 | 107 | 104
RPMI 5 mM glucose + 10% dialyzed FBS, 1.71 µM | 116 | 101 | 126
RPMI 5 mM glucose + 10% dialyzed FBS, 5.12 µM | 108 | 104 | 101
RPMI 5 mM glucose + 10% dialyzed FBS, 15.4 µM | 121 | 103 | 96.2
RPMI 5 mM glucose + 10% dialyzed FBS, 46.1 µM | 110 | 87.3 | 90.9

AUC of viability dose-response curve
Details | [4] | [5] | [6]
HPLM + 10% dialyzed FBS | 461 | 469 | 462
RPMI 5 mM glucose + 10% FBS | 458 | 463 | 458
RPMI 5 mM glucose + 10% dialyzed FBS | 467 | 473 | 467

CNC(=O)c1ccc(Nc2ncc(C(F)(F)F)c(NCc3nccnc3N(C)[S+](C)(=O)[O-])n2)cc1
cell viability [%], HPLM + 10% dialyzed FBS
Details | [2] | [3]
0.000781 µM | 120 | 115
0.00234 µM | 127 | 105
0.00702 µM | 117 | 124
0.0211 µM | 118 | 127
0.0632 µM | 124 | 125
0.19 µM | 114 | 113
0.569 µM | 122 | 99.8
1.71 µM | 125 | 63.2
5.12 µM | 109 | 23.5
15.4 µM | 89.4 | 16.7
46.1 µM | 102 | 20.9

AUC of viability dose-response curve
Details | [4] | [5] | [6]
HPLM + 10% dialyzed FBS | 446 | 457 | 348
RPMI 5 mM glucose + 10% FBS | 412 | 447 | 317
RPMI 5 mM glucose + 10% dialyzed FBS | 443 | 438 | 314
